One assay relates to SCC cells. In words: Real-time PCR Apoptosis Array. The assay is classed as cell-based. An excerpt: The control cells were untreated cells.
RNA was quantified by measuring Optical Density at 260 nm.
Background: Real-time PCR tracks product formation cycle by cycle.

The subject of a further assay is a variety of cell types. Description: Western blot analysis (Bcl-xL, Vimentin, oxidative phosphorylation and mitochondrial membrane proteins). The note with it: 50 or 100 μM Q10. The assay is classed as cell-based. On the procedure: Approximately 50 μg of protein were assayed per sample by immunoblotting. All treatments were run in triplicate with controls. […] The primary antibodies were incubated overnight at 4 degrees C. in a 5% BSA and TBST solution. Secondary antibodies were incubated for one hour at 4 degrees. All antibodies were purchased from Cell Signaling Technology. Antibodies were used at a ratio of 1:1000, with the exception of βActin at a ratio of 1:5000. Blots were developed and results were quantified using the NIH Java based densitometer analysis software Image J. All blots were also probed for and normalized to their respective βActin expression.
The first experiment processed and evaluated by Western blot and 2-D gel electrophoresis was carried out on the skin cancer cell line SKMEL-28.
A variety of cell types were evaluated by Western blot analysis against an antibody for Bcl-xL (FIG. 14), an antibody for Vimentin (FIG. 15), a series of antibodies for mitochondrial oxidative phosphorylation function (FIGS. 16-21) and against a series of antibodies related to mitochondrial membrane integrity (FIGS. 22-27).

Assay [1] relates to Lactate Dehydrogenase (LDH). Description: Western blot, Lactate Dehydrogenase levels. The assay is classed as cell-based, human. The procedure: In this experiment, the cells were additionally treated with either 5 mM glucose (“5G”) or 22 mM glucose (“22G”). The samples derived from the cells were processed and run on a 4-12% Bis-Tris Novex NuPAGE gel as described above. The gels were run, transferred and stained essentially as described above.
After transfer each blot was dried for 15-20 minutes, activated with methanol for 5 seconds, washed with water for 5 minutes, and TBST for 15 minutes. The blots were blocked for 1 hour with 5% blocking reagent in TBS-T at room temperature and then washed 3 times with TBS-T (1×-15′; 2×5′ each) and probed with the primary antibody for Lactate Dehydrogenase (abcam ab2101; polyclonal) in 5% BSA (at 1:1000 dilutions) by incubation overnight at 4 deg C. with shaking. After the overnight incubation with primary antibody for Lactate Dehydrogenase, the blots were washed 3 times with TBS-T (1×-15′; 2×5′ each) and probed with the secondary antibody (rabbit antigoat; 1:10,000 dilution) for 1 h at room temperature. After 1 h of incubation with secondary antibodies, the blots were washed 3 times with TBS-T (1×-15′; 2×5′ each) and then incubated with ECF reagent for 5 mins and then each blot scanned with 5100 Fuji Laser scanner at 25 uM resolution, 16 bit, green laser, at 400V and at 500 V.
In this experiment, the cells were additionally treated with either 5 mM glucose (“5G”) or 22 mM glucose (“22G”). The samples derived from the cells were processed and the gels were run, transferred, stained and scanned essentially as described above.
The levels of LDH and PDH were determined by probing the blots successively with primary antibodies for LDH and PDH, essentially as described above.
The above blots were stripped by incubating for 30 minutes with methanol, followed by two 10 minute washes with TBS-T, then 30 minutes of incubation with Stripping buffer at 50 deg C., and followed by two washes with 100 ml or more of TBS-T for 30′ each. The blots were scanned in laser scanner to check for complete stripping. […]
A general note: Immunoblotting shows a protein as a band on a membrane.

For `COC1=C(OC)C(=O)C(C/C=C(\C)CC/C=C(\C)CC/C=C(\C)CC/C=C(\C)CC/C=C(\C)CC/C=C(\C)CC/C=C(\C)CC/C=C(\C)CC/C=C(\C)CCC=C(C)C)=C(C)C1=O` [Q10, Coenzyme Q10], the “Regulation (mRNA)” value is listed as “Down regulated at 6 hours” in the assay on SCC cells (100 μM Q10, at 6 hours); “Up regulated at 24 hours” in the assay on SCC cells (100 μM Q10, at 24 hours, BAX mRNA); “Down regulated at 24 hours” in the assay with SCC cells (100 μM Q10, at 24 hours, BNIP3 mRNA). Besides, in the assay with a variety of cell types, the “levels of examined proteins” value was “several of the examined proteins were upregulated or downregulated”. Further, the “Lactate Dehydrogenase Normalized Volume (24 h)” value in assay [1] (HepG2, 5g glucose, 24 h, amount 50) is recorded as 7900. For the same compound, the LDH expression result was “reduced” in assay [1] (cancer) and “minimal effect” in assay [1] (normal cells).

Source of the values: patent publication US10351915B2 (Berg LLC, priority 2009, dated 2019).
